Laboratory results from the NIST ThermoML archive (doi:10.1007/s10765-007-0169-z).

Assays:
[1] = xn = mol fraction of the nth substance listed; details: Drop volume
[2] = for surface tension liquid-gas: Drop volume; for mass density: 101.33 kPa, Liquid, Pycnometric method

CC(C)(C)Cl [2-chloro-2-methylpropane] + C1CCOC1
[1]
Details	surface tension liquid-gas [mN/m]
298.15 K, x2 = 0.0664	19.32
298.15 K, x2 = 0.1332	19.74
298.15 K, x2 = 0.2532	20.51
298.15 K, x2 = 0.3652	21.26
298.15 K, x2 = 0.4851	22.11
298.15 K, x2 = 0.5768	22.81
298.15 K, x2 = 0.6804	23.66
298.15 K, x2 = 0.7747	24.51
298.15 K, x2 = 0.8446	25.2
298.15 K, x2 = 0.9372	26.23
298.15 K, x2 = 0.9656	26.58
313.15 K, x2 = 0.0427	16.98
313.15 K, x2 = 0.1236	17.22
313.15 K, x2 = 0.1853	17.54
313.15 K, x2 = 0.2856	18.22
313.15 K, x2 = 0.3852	18.94
313.15 K, x2 = 0.5033	19.9
313.15 K, x2 = 0.6055	20.75
313.15 K, x2 = 0.6963	21.55
313.15 K, x2 = 0.794	22.48
313.15 K, x2 = 0.89	23.53
313.15 K, x2 = 0.9446	24.25

CC(C)(C)Cl [2-chloro-2-methylpropane] + C1CCOCC1
[1]
Details	surface tension liquid-gas [mN/m]
298.15 K, x2 = 0.0332	19.18
298.15 K, x2 = 0.0955	19.68
298.15 K, x2 = 0.2242	20.68
298.15 K, x2 = 0.3219	21.37
298.15 K, x2 = 0.4336	22.17
298.15 K, x2 = 0.5374	22.97
298.15 K, x2 = 0.6269	23.69
298.15 K, x2 = 0.7173	24.48
298.15 K, x2 = 0.8149	25.41
298.15 K, x2 = 0.9089	26.36
298.15 K, x2 = 0.9418	26.71
313.15 K, x2 = 0.0734	17.35
313.15 K, x2 = 0.1038	17.5
313.15 K, x2 = 0.2093	18.14
313.15 K, x2 = 0.3169	18.9
313.15 K, x2 = 0.4363	19.8
313.15 K, x2 = 0.5116	20.41
313.15 K, x2 = 0.612	21.24
313.15 K, x2 = 0.7058	22.05
313.15 K, x2 = 0.8154	23.08
313.15 K, x2 = 0.9006	23.98
313.15 K, x2 = 0.9529	24.66

CCC(C)Cl (configuration not stated) [2-chlorobutane]
[2]
Details	mass density [kg/m3]	surface tension liquid-gas [mN/m]
298.15 K	867.37	21.93
313.15 K	–	19.33

CCC(C)Cl (configuration not stated) [2-chlorobutane] + C1CCOC1
[1]
Details	surface tension liquid-gas [mN/m]
298.15 K, x2 = 0.0427	21.96
298.15 K, x2 = 0.1259	22.24
298.15 K, x2 = 0.2478	22.71
298.15 K, x2 = 0.3589	23.19
298.15 K, x2 = 0.4628	23.68
298.15 K, x2 = 0.5654	24.19
298.15 K, x2 = 0.6678	24.74
298.15 K, x2 = 0.7513	25.22
298.15 K, x2 = 0.84	25.77
298.15 K, x2 = 0.9208	26.35
298.15 K, x2 = 0.9701	26.76
313.15 K, x2 = 0.0581	19.7
313.15 K, x2 = 0.124	20.12
313.15 K, x2 = 0.2442	20.84
313.15 K, x2 = 0.3595	21.47
313.15 K, x2 = 0.4761	22.05
313.15 K, x2 = 0.573	22.53
313.15 K, x2 = 0.6654	23
313.15 K, x2 = 0.7524	23.45
313.15 K, x2 = 0.836	23.94
313.15 K, x2 = 0.9209	24.49
313.15 K, x2 = 0.9663	24.81

CCC(C)Cl (configuration not stated) [2-chlorobutane] + C1CCOCC1
[1]
Details	surface tension liquid-gas [mN/m]
298.15 K, x2 = 0.04	22.05
298.15 K, x2 = 0.1057	22.38
298.15 K, x2 = 0.2133	22.88
298.15 K, x2 = 0.3195	23.39
298.15 K, x2 = 0.4166	23.88
298.15 K, x2 = 0.5188	24.44
298.15 K, x2 = 0.6151	24.99
298.15 K, x2 = 0.7111	25.56
298.15 K, x2 = 0.8098	26.15
298.15 K, x2 = 0.9438	26.95
298.15 K, x2 = 0.9845	27.2
313.15 K, x2 = 0.0355	19.56
313.15 K, x2 = 0.1006	20.01
313.15 K, x2 = 0.2177	20.83
313.15 K, x2 = 0.3192	21.5
313.15 K, x2 = 0.4243	22.14
313.15 K, x2 = 0.5166	22.66
313.15 K, x2 = 0.5931	23.07
313.15 K, x2 = 0.7193	23.76
313.15 K, x2 = 0.8156	24.31
313.15 K, x2 = 0.9057	24.85
313.15 K, x2 = 0.991	25.34

C1CCOC1 [tetrahydrofuran]
[2]
Details	mass density [kg/m3]	surface tension liquid-gas [mN/m]
298.15 K	881.95	27.04
313.15 K	–	25.05

C1CCOCC1 [tetrahydropyran]
[2]
Details	mass density [kg/m3]	surface tension liquid-gas [mN/m]
298.15 K	878.81	27.29
313.15 K	–	25.39
